Experimental data from patent US10111956B2, “Corticosteroid compositions” (TOLMAR, Inc., priority 2013, dated 2018).

Tests used:
[1] = Solubility of corticosteroids in neat solvents, measured gravimetrically; type: physicochemical; settings: for Solubility in PG Monocaprylate: neat PG monocaprylate; for Solubility in PG Monocaprylate / Solubility in PG Monolaurate / Solubility in Isopropyl Myristate: room temperature, examined at about 24 hours; for Solubility in PG Monolaurate: neat PG monolaurate; for Solubility in Isopropyl Myristate: neat isopropyl myristate; for times more soluble in PG monocaprylate than in isopropyl myristate / times more soluble in PG monolaurate than in isopropyl myristate: ratio of Table 1 solubilities
Description: (§1) The solubilities of various corticosteroids in propylene glycol (PG) monocaprylate, PG monolaurate, or isopropyl myristate were measured gravimetrically. Corticosteroid, PG monocaprylate, PG monolaurate, and/or isopropyl myristate were placed in glass vials and weighed on an analytical balance to four decimals places. Test solutions were stirred and shaken at room temperature for up to 30 minutes. Test solutions were examined at about 24 hours for clarity or non-dissolved material.

[2] = Solubility of corticosteroid in mixtures of solvent components (procedure of Example 1); type: physicochemical
Description: as §1

Structure (SMILES): CC1(C)O[C@@H]2C[C@H]3[C@@H]4CCC5=CC(=O)C=C[C@]5(C)[C@@]4(F)[C@@H](O)C[C@]3(C)[C@]2(C(=O)CO)O1 [Triamcinolone Acetonide]
- Solubility in PG Monocaprylate [1]: 0.65 % w/w
- Solubility in PG Monolaurate [1]: 0.30 % w/w
- Solubility in PG Monolaurate ([1]; listed as triamcinolone acetonide): 0.3 % w/w
- Solubility in Isopropyl Myristate [1]: <0.04 % w/w
- times more soluble in PG monocaprylate than in isopropyl myristate [1]: at least 16 times
- times more soluble in PG monolaurate than in isopropyl myristate [1]: at least 7.5 times
- increase of solubility on addition of ethoxydiglycol to PG alone ([2]; 12:12:0 ethoxydiglycol:PG:PG monocaprylate versus PG alone, Example 5): 1.7 fold
- Solubility ([2]; Ethoxydiglycol:PG:PG Monocaprylate 12:0:12, Table 7): 1.53 % w/w
- Solubility ([2]; Ethoxydiglycol:PG:PG Monocaprylate 12:3:9, Table 7): 2.00 % w/w
- Solubility ([2]; Ethoxydiglycol:PG:PG Monocaprylate 12:6:6, Table 7): 2.30 % w/w
- Solubility ([2]; Ethoxydiglycol:PG:PG Monocaprylate 12:9:3, Table 7): 2.45 % w/w
- Solubility ([2]; Ethoxydiglycol:PG:PG Monocaprylate 12:12:0, Table 7): 2.45 % w/w
- solubility in ethoxydiglycol:PG:PG monocaprylate mixture compared with PG:PG monocaprylate mixture ([2]; FIG. 4): more soluble
- solubility in PG:PG monocaprylate mixtures compared with expected solubility (dashed line) ([2]; FIG. 4, each tested mixture containing both PG and PG monocaprylate): more soluble in the mixture than expected
- Solubility ([2]; PG:PG Monocaprylate 0:100 (PG monocaprylate alone), Table 6): 0.60 % w/w
- Solubility ([2]; PG:PG Monocaprylate 25:75, Table 6): 1.25 % w/w
- Solubility ([2]; PG:PG Monocaprylate 50:50, Table 6): 1.60 % w/w
- Solubility ([2]; PG:PG Monocaprylate 75:25, Table 6): 1.50 % w/w
- Solubility ([2]; PG:PG Monocaprylate 90:10, Table 6): 1.15 % w/w
- Solubility ([2]; PG:PG Monocaprylate 100:0 (PG alone), Table 6): 0.90 % w/w

Structure (SMILES): CCC(=O)O[C@]1(C(=O)CCl)[C@@H](C)C[C@H]2[C@@H]3CCC4=CC(=O)C=C[C@]4(C)[C@@]3(F)[C@@H](O)C[C@@]21C [Clobetasol Propionate]
- Solubility in PG Monocaprylate [1]: 4.0 % w/w
- Solubility in PG Monolaurate [1]: 1.80 % w/w
- Solubility in Isopropyl Myristate [1]: 0.25 % w/w
- times more soluble in PG monocaprylate than in isopropyl myristate [1]: 16 times
- times more soluble in PG monolaurate than in isopropyl myristate [1]: 7.2 times

Structure (SMILES): CCC(=O)O[C@]1(C(=O)SCF)[C@H](C)C[C@H]2[C@@H]3C[C@H](F)C4=CC(=O)C=C[C@]4(C)[C@@]3(F)[C@@H](O)C[C@@]21C [Fluticasone Propionate]
- Solubility in PG Monocaprylate [1]: 0.3 % w/w
- Solubility in Isopropyl Myristate [1]: <0.03 % w/w
- times more soluble in PG monocaprylate than in isopropyl myristate [1]: 10 times

Structure (SMILES): CCC(=O)OCC(=O)[C@@]1(OC(=O)CC)[C@@H](C)C[C@H]2[C@@H]3CCC4=CC(=O)C=C[C@]4(C)[C@@]3(F)[C@@H](O)C[C@@]21C [Betamethasone Dipropionate]
- Solubility in PG Monocaprylate [1]: 4.0 % w/w
- Solubility in PG Monolaurate [1]: 2.30 % w/w
- Solubility in Isopropyl Myristate [1]: 0.15 % w/w
- times more soluble in PG monocaprylate than in isopropyl myristate [1]: 27 times
- times more soluble in PG monolaurate than in isopropyl myristate [1]: 15.3 times

Structure (SMILES): CC1(C)O[C@@H]2C[C@H]3[C@@H]4CCC5=CC(=O)C=C[C@]5(C)[C@H]4[C@@H](O)C[C@]3(C)[C@]2(C(=O)CO)O1 [Desonide]
- Solubility in PG Monocaprylate [1]: 1.15 % w/w
- Solubility in PG Monolaurate [1]: 0.40 % w/w

Structure (SMILES): CCCC(=O)O[C@]1(C(=O)CO)CC[C@H]2[C@@H]3CCC4=CC(=O)CC[C@]4(C)[C@H]3[C@@H](O)C[C@@]21C [Hydrocortisone Butyrate]
- Solubility in PG Monocaprylate [1]: 2.0 % w/w
- Solubility in PG Monolaurate [1]: 1.35 % w/w
- Solubility in Isopropyl Myristate [1]: 0.10 % w/w
- times more soluble in PG monocaprylate than in isopropyl myristate [1]: 20 times
- times more soluble in PG monolaurate than in isopropyl myristate [1]: 13.5 times

Structure (SMILES): C[C@@H]1C[C@H]2[C@@H]3CCC4=CC(=O)C=C[C@]4(C)[C@@]3(Cl)[C@@H](O)C[C@]2(C)[C@@]1(OC(=O)c1ccco1)C(=O)CCl [Mometasone Fuorate]
- Solubility in PG Monocaprylate [1]: 0.7 % w/w
